# Source: US6518423B1, “Benzopiperidine derivatives” (Eisai Co., Ltd., priority 1996, dated 2003)
row,melting point,SMILES
1,244 to 246 °C,Cc1nccn1Cc1ccc2c(c1)Nc1nccnc1S2
2,230 to 231 °C,CCc1nccn1Cc1ccc2c(c1)Nc1nccnc1S2
3,231 to 232 °C,Clc1nccn1Cc1ccc2c(c1)Nc1nccnc1S2
4,286 to 287 °C,Nc1nccn1Cc1ccc2c(c1)Nc1nccnc1S2
5,262 to 264 °C,N#Cc1ccc(-c2cn(Cc3ccc4c(c3)Nc3nccnc3S4)cn2)cc1
6,185 to 188 °C,O=C(O)c1ccc(Cc2nccn2Cc2ccc3c(c2)Nc2nccnc2S3)cc1
7,242 to 246 °C,O=C(O)c1ccc(C(=O)c2nccn2Cc2ccc3c(c2)Nc2nccnc2S3)cc1
8,235 °C (dec.),Cc1ncn(Cc2ccc3c(c2)Nc2nccnc2S3)c1C(=O)O
9,202 to 204 °C,COC(C)(C)CC/C(=C\c1ncn(Cc2ccc3c(c2)Nc2nccnc2S3)c1C)C(=O)O
10,172 °C,CC/C(=C\c1c(C)ncn1Cc1ccc2c(c1)Nc1nccnc1S2)C(=O)O
11,259 to 261 °C,C/C(O)=C(\C#N)C(=O)Nc1ccc(-c2cn(Cc3ccc4c(c3)Nc3nccnc3S4)cn2)cc1
12,95 to 98 °C,OC(c1ccccn1)c1nccn1Cc1ccc2c(c1)Nc1nccnc1S2 (stereo not drawn)
13,199 to 201 °C,O=C(O)CC1CC2(C1)C1CCCC2CN(Cc2ccc3c(c2)Nc2nccnc2S3)C1 (stereo not drawn)
14,199 to 202 °C,Cc1ncn(Cc2ccc3c(c2)Nc2nccnc2S3)c1C(C)(C)O
15,205 to 206 °C,CC1C[C@@H](C)C2CN(Cc3ccc4c(c3)Nc3nccnc3S4)CC1C21CC(CC(=O)O)C1 (stereo partly drawn)
16,210 to 212 °C,c1cnc2c(n1)Nc1cc(Cn3cnnn3)ccc1S2
17,84 to 86 °C,COc1ccc(C(O)c2ccc3c(c2)Nc2nccnc2S3)cc1 (stereo not drawn)
18,181 to 184 °C,CN(Cc1ccc(S(N)(=O)=O)cc1)Cc1ccc2c(c1)Nc1nccnc1S2
19,241 to 244 °C,CN(Cc1ccc(C(=O)O)cc1)Cc1ccc2c(c1)Nc1nccnc1S2
20,245 to 248 °C,O=C(O)c1ccc(CNCc2ccc3c(c2)Nc2nccnc2S3)cc1
21,274 to 275 °C,CCNC(=O)c1ccc2c(c1)Nc1nccnc1S2
22,212 °C (dec.),CCCNC(=O)Cc1ccc2c(c1)Nc1nccnc1S2
23,237 to 240 °C,O=C(Nc1ccccc1)OCc1ccc2c(c1)Nc1nccnc1S2
24,118 to 120 °C,c1ccc(COCc2ccc3c(c2)Nc2nccnc2S3)cc1
25,290 °C,Nc1ncnc2c1ncn2Cc1ccc2c(c1)Nc1nccnc1S2
26,229 to 233 °C,CN(C)c1ncnc2c1ncn2Cc1ccc2c(c1)Nc1nccnc1S2

row,melting point,SMILES
1,239 to 240 °C,CN(C)c1nc(N(C)C)c2ncn(Cc3ccc4c(c3)Nc3nccnc3S4)c2n1
2,215 to 217 °C,CCc1ncnc2c1ncn2Cc1ccc2c(c1)Nc1nccnc1S2
3,266 to 268 °C,CC(=O)c1ncnc2ncn(Cc3ccc4c(c3)Nc3nccnc3S4)c12
4,205 to 208 °C,CC(O)c1ncnc2ncn(Cc3ccc4c(c3)Nc3nccnc3S4)c12 (stereo not drawn)
5,268 to 271 °C,CC(C)(O)c1ncnc2ncn(Cc3ccc4c(c3)Nc3nccnc3S4)c12
6,210 to 212 °C,CC(O)c1ncnc2c1ncn2Cc1ccc2c(c1)Nc1nccnc1S2 (stereo not drawn)
7,> 280 °C,Cl.N=C(N)Cc1ccc2c(c1)Nc1nccnc1S2
8,245 to 249 °C (dec.),Cl.N=C(Cc1ccc2c(c1)Nc1nccnc1S2)Nc1ccccc1
9,200 to 202 °C,N/C(Cc1ccc2c(c1)Nc1nccnc1S2)=N\S(=O)(=O)C(F)(F)F
10,266 to 268 °C,CC(C)NC(Cc1ccc2c(c1)Nc1nccnc1S2)=NC#N
11,213 to 215 °C,N#CN=C(Cc1ccc2c(c1)Nc1nccnc1S2)NCCS(=O)(=O)[O-].[Na+]
12,218 to 219 °C,CN(C)/C=N/Cc1ccc2c(c1)Nc1nccnc1S2
13,279 to 282 °C,Cl.N=C(N)NCc1ccc2c(c1)Nc1nccnc1S2
14,> 280 °C,Cl.N=C(N)c1ccnc2c1Sc1ccccc1N2
15,168 to 170 °C,CS(=O)(=O)NCCC1CCN(Cc2ccc3c(c2)Nc2nccnc2S3)CC1
16,219 to 221 °C,CS(=O)(=O)N1CCC(NCc2ccc3c(c2)Nc2nccnc2S3)CC1
17,110 to 112 °C,CS(=O)(=O)NCC1=CCCN(Cc2ccc3c(c2)Nc2nccnc2S3)C1
18,139 to 142 °C,NC(=O)OC1CCN(Cc2ccc3c(c2)Nc2nccnc2S3)CC1
19,225 to 228 °C,NC(=O)C1CCN(Cc2ccc3c(c2)Nc2nccnc2S3)CC1
20,168 to 172 °C,CC1CCCC(C)N1Cc1ccc2c(c1)Nc1nccnc1S2 (stereo not drawn)
21,56 to 57 °C,O=S(=O)(NC1CCN(Cc2ccc3c(c2)Nc2nccnc2S3)CC1)N1CCCCC1
22,189 to 190 °C,O=S(=O)(NC1CCN(Cc2ccc3c(c2)Nc2nccnc2S3)CC1)N1CCOCC1
23,187 to 188 °C,CC(C)(O)CC1CCN(Cc2ccc3c(c2)Nc2nccnc2S3)CC1
24,> 275 °C,O=C1NC(=O)C2(CCN(Cc3ccc4c(c3)Nc3nccnc3S4)CC2)N1
25,202 to 206 °C,N/C(=N\S(N)(=O)=O)C1CCN(Cc2ccc3c(c2)Nc2nccnc2S3)CC1
26,219 to 220 °C,c1ccc2c(c1)CN(Cc1ccc3c(c1)Nc1nccnc1S3)C2

row,melting point,SMILES
1,173 to 176 °C,CNS(=O)(=O)NCC1CN(Cc2ccc3c(c2)Nc2nccnc2S3)C1
2,170 to 173 °C,OCC1(O)CCN(Cc2ccc3c(c2)Nc2nccnc2S3)CC1
3,188 to 190 °C,CN(C)S(=O)(=O)CCC1CCN(Cc2ccc3c(c2)Nc2nccnc2S3)CC1
4,193 to 195 °C,CCC/C(=N\OCC(=O)O)C1CCN(Cc2ccc3c(c2)Nc2nccnc2S3)CC1
5,143 °C (dec.),O=C(Cc1ccc2c(c1)Nc1nccnc1S2)NCCCN1CCC(C(=O)O)CC1
6,167 to 170 °C,O=C(O)CC(=O)N1CCC(NCc2ccc3c(c2)Nc2nccnc2S3)CC1
7,219 to 220 °C,CC(CCC1CCN(Cc2ccc3c(c2)Nc2ncncc2S3)CC1)C(=O)O (stereo not drawn)
8,235 to 238 °C,CC(CCC1CCN(CCCc2ccc3c(c2)Nc2nccnc2S3)CC1)C(=O)O (stereo not drawn)
9,130 to 132 °C,O=C(O)Cc1cccc(C2CCN(Cc3ccc4c(c3)Nc3nccnc3S4)CC2)c1
10,138 to 140 °C,COc1cc(C2CCN(Cc3ccc4c(c3)Nc3nccnc3S4)CC2)cc(CC(=O)O)c1OC
11,210 to 215 °C,CC(CCC1CCN(Cc2ccc3c(c2)Nc2ccncc2S3)CC1)C(=O)O (stereo not drawn)
12,169 to 172 °C,CC(C(=O)O)C1CC2(CCN(Cc3ccc4c(c3)Nc3nccnc3S4)CC2)C1 (stereo not drawn)
13,149 to 151 °C,CC1(CC(=O)O)CC2(CCN(Cc3ccc4c(c3)Nc3nccnc3S4)CC2)C1
14,206 to 208 °C,O=C(O)CNC1CCN(Cc2ccc3c(c2)Nc2nccnc2S3)CC1
15,149 to 151 °C,O=C(O)CC(=O)NC1CCN(Cc2ccc3c(c2)Nc2nccnc2S3)CC1
16,155 to 156 °C,O=C(O)C#CC1CCN(Cc2ccc3c(c2)Nc2nccnc2S3)CC1
17,192 °C (dec.),O=C(O)Cc1ccc(C2(O)CCN(Cc3ccc4c(c3)Nc3nccnc3S4)CC2)cc1
18,200 to 210 °C,O=C(O)CS(=O)(=O)NC1CCN(Cc2ccc3c(c2)Nc2nccnc2S3)CC1
19,210 to 215 °C,CS(=O)(=O)N(CC(=O)O)C1CCN(Cc2ccc3c(c2)Nc2nccnc2S3)CC1
20,185 to 189 °C,CS(=O)(=O)N1CCC(N(CC(=O)O)Cc2ccc3c(c2)Nc2nccnc2S3)CC1
21,204 to 207 °C,O=C(O)COC1CCN(Cc2ccc3c(c2)Nc2nccnc2S3)CC1
22,> 275 °C,CCOC(=O)c1ccc2c(c1)Nc1nccnc1N2
23,> 275 °C,N#Cc1ccc2c(c1)Nc1nccnc1N2
24,274 to 275 °C,CN1c2ccc(C#N)cc2Nc2nccnc21
25,253 to 255 °C,O=C(O)c1ccc(CN2c3ccccc3Nc3nccnc32)cc1
26,189 to 190 °C,COC(=O)CCCN1c2ccccc2Nc2nccnc21

row,melting point,SMILES
1,273 to 274 °C,O=C(O)CCCN1c2ccccc2Nc2nccnc21
2,215 to 219 °C,CN1c2ccc(C=O)cc2Nc2nccnc21
3,268 to 269 °C,CN1c2ccc(-c3cnco3)cc2Nc2nccnc21
4,215 to 218 °C,CN1c2ccc(CO)cc2Nc2nccnc21
5,> 275 °C,CN1c2ccc(C(O)c3cccs3)cc2Nc2nccnc21 (stereo not drawn)
6,204 to 208 °C,CN1c2ccc(C(O)C#Cc3ccccc3)cc2Nc2nccnc21 (stereo not drawn)
7,185 to 190 °C,CN1c2ccc(C(O)c3nccn3S(=O)(=O)N(C)C)cc2Nc2nccnc21 (stereo not drawn)
8,> 275 °C,CN1c2ccc(C(O)c3nnc[nH]3)cc2Nc2nccnc21 (stereo not drawn)
9,> 275 °C,CN1c2ccc(C(N)c3ccccn3)cc2Nc2nccnc21 (stereo not drawn)
10,203 to 205 °C,CN(C)C(=O)C#Cc1ccc2c(c1)Nc1nccnc1N2C
11,241 to 243 °C,CN1c2ccc(C#CCO)cc2Nc2nccnc21
12,245 to 247 °C,CN1c2ccc(C#Cc3ccccc3)cc2Nc2nccnc21
13,194 to 196 °C,c1cc(NCc2ccc3c(c2)Nc2nccnc2S3)ccn1
14,222 to 225 °C,c1ccc2c(NCc3ccc4c(c3)Nc3nccnc3S4)nccc2c1
15,223 to 225 °C,O=C(O)CCC1C2CCCC1CN(Cc1ccc3c(c1)Nc1nccnc1S3)C2 (stereo not drawn)
16,244 to 247 °C,CN(C)c1ccc(NCc2ccc3c(c2)Nc2nccnc2S3)cn1
17,160 to 164 °C,COc1ccc(NCc2ccc3c(c2)Nc2nccnc2S3)c(OC)n1
18,202 to 204 °C,CCc1ccc(NCc2ccc3c(c2)Nc2nccnc2S3)cn1
19,160 to 164 °C,CCOC(=O)C(C)(C)CCCCc1ccc(NCc2ccc3c(c2)Nc2nccnc2S3)cn1
20,124 to 128 °C,OCCCCCCOc1ccc(NCc2ccc3c(c2)Nc2nccnc2S3)cn1
21,215 to 220 °C,O=C(O)c1ccc(NCc2ccc3c(c2)Nc2nccnc2S3)nc1
22,158 to 161 °C,CC(C)(CCCCc1ccc(NCc2ccc3c(c2)Nc2nccnc2S3)cn1)C(=O)O
23,200 to 203 °C,Clc1ccc(NCc2ccc3c(c2)Nc2nccnc2S3)nc1
24,208 to 210 °C,CS(=O)(=O)N(Cc1ccc2c(c1)Nc1nccnc1S2)c1cccnc1
